Reference: patent publication US12636370B2, “Combination therapy for treatment of cancer” (Institute For Cancer Research, priority 2019, dated 2026)

What was measured:
Format in all cases: cell-based
[1] = system: OVCAR8 parental, MZ1-R or ARV-R; experiment: 14-day colony formation assay, crystal violet staining; conditions: ARV-R or MZ1-R vs parental OVCAR8, 14-day
Procedure: Parental, JQ1-R or MZ1-R OVCAR8 cells were treated with escalating doses of MK2206 for 5 days and cell viability assessed by CellTiter-Glo. MZ1-R or JQ1-R inhibitor treated cell viabilities normalized to DMSO treated JQ1-R or MZ1-R cells, respectfully (FIG. 11J). […] Parental, JQ1-R or MZ1-R OVCAR8 cells were treated with escalating doses of LP-935509 for 5 days and cell viability assessed by CellTiter-Glo. MZ1-R or JQ1-R inhibitor treated cell viabilities normalized to DMSO treated JQ1-R or MZ1-R cells, respectfully (FIG. 11K). […] Long-term 14-day colony formation assay of OVCAR8 parental, MZ1-R or ARV-R were treated with escalating doses of GSK529A or DMSO. Colony formation was assessed by crystal violet staining (FIG. 11L).

[2] = system: OVCAR8 MZ1-R cells; experiment: Apoptosis by Western blot, OVCAR8 MZ1-R cells
[3] = system: OVCAR5 JQ1-R cells; experiment: Growth curves, OVCAR5 JQ1-R cells
[4] = system: BET proteins (BRD2, BRD4); experiment: Western blot of BET proteins, KURAMOCHI, COV362 and OVCAR5 MZ1-R cells
[5] = system: INSR and downstream MTOR, AKT and MAPK signaling; experiment: Kinase signaling in BBD-R cells (MIB-MS, phospho-blot); conditions: for phosphorylation of P70S6K (T359): BBD-R cells (MZ1-R, ARV-R), 4 hours
Procedure: Reduced MIB-binding of kinases involved in cell cycle (WEE1, CHEK1, CDK2, CDK6 and PLK1), as well as kinases required for translation (EIF2AK1, EIF2AK2, and EIF2AK4) were also observed following GSK529A treatment. […] Enrichment maps of pathways repressed by INSR inhibition generated from MIB-MS profiles of OVCAR8 cells treated with GSK529A (1 μM) treatment for 48 hours. Statistical differences in protein log 2 LFQ z-scores comparing GSK529A to control treated MZ1-R cells was determined by paired T-Test Benjamini- Hochberg adjusted p values at FDR of <0.05 using Perseus Software. […] Enrichment maps were generated in Cytoscape using the Enrichment Map app v2.2.1. (data not shown).

[6] = system: OVCAR8 MZ1-R cells; experiment: CellTiter-Glo cell viability, OVCAR8 MZ1-R cells; conditions: escalating doses, 5 days; for sensitivity of MZ1-R cells relative to JQ1-R cells or parental cells: OVCAR8, inhibitor screen
[7] = system: KURAMOCHI, COV362 and OVCAR5 MZ1-R cells; experiment: CellTiter-Glo cell viability, KURAMOCHI, COV362 and OVCAR5 MZ1-R cells; conditions: COV362 and OVCAR5, escalating doses, 5 days
[8] = system: BET proteins (BRD2, BRD3, BRD4); experiment: Western blot of BET protein levels, OVCAR8 parental cells
[9] = molecular target: T1, CDK9 (Homo sapiens, UniProt P50750); experiment: Western blot of CDK9 protein levels, OVCAR8 Thal-R cells; conditions: Thal 500 nM or 2 μM kinase inhibitor, 4 hours
T1 construct: OVCAR8 cells were treated with escalating doses of Thal SNS 032 and CDK9 protein levels were determined by Western blot; endogenous in cells; host or cells: OVCAR8 parental and Thal-R cells
Procedure: OVCAR8 cells were treated with escalating doses of Thal SNS 032 and CDK9 protein levels were determined by Western blot (FIG. 15A). […] Thal-R inhibitor treated cell viabilities were normalized to DMSO treated Thal-R cells. […] OVCAR8 cells were treated with 100 nM Thal SNS 032, escalating doses of GSK529A or RAD001, or the combination of Thal SNS 032 and kinase inhibitors, for 5 days and cell viability was assessed by CellTiter-Glo (FIGS. 15F and 15G).

[10] = system: BRD2, BRD3 or BRD4 RNA; experiment: qRT-PCR of BRD RNA levels, OVCAR8 MZ1-R cells; conditions: 1 μM, 48 hours
[11] = system: BET proteins, FOSL1, MYC; experiment: Western blot of BET proteins and BRD4 targets, JQ1-R cells
[12] = system: OVCAR8 Thal-R cells; experiment: CellTiter-Glo cell viability, OVCAR8 Thal-R cells; conditions: OVCAR8, escalating doses, 5 days
Procedure: (§1) Chronic exposure of OVCAR8 cells to CDK9 PROTAC (Thal SNS 032) sensitized cells to RAD001 or GSK1904529A. […] Moreover, these studies show both BET PROTACs and CDK9 PROTACs elicit a similar dependency on MTOR signaling to promote drug resistance. […] OVCAR8 cells were treated with escalating doses of Thal SNS 032 and CDK9 protein levels were determined by Western blot (FIG. 15A). […] (FIG. 15B). […] Thal-R inhibitor treated cell viabilities were normalized to DMSO treated Thal-R cells. Combination therapies involving GSK529A or RAD001 and Thal SNS 032 improved growth repression of OVCAR8 cells. OVCAR8 cells were treated with 100 nM Thal SNS 032, escalating doses of GSK529A or RAD001, or the combination of Thal SNS 032 and kinase inhibitors, for 5 days and cell viability was assessed by CellTiter-Glo (FIGS. 15F and 15G).

[13] = system: OVCAR8 ARV-R cells; experiment: CellTiter-Glo cell viability, OVCAR8 ARV-R cells; conditions: escalating doses, 5 days
[14] = system: BET proteins (BRD2, BRD3, BRD4); experiment: Western blot of BET proteins and BRD4 targets, OVCAR8 MZ1-R cells; conditions: for BET protein levels: Western blot
[15] = system: KURAMOCHI cells; experiment: Combination cell viability, KURAMOCHI cells, CellTiter-Glo; conditions: 100 nM, 5 days
From the text: The proposed model of the protection of BRD4 from PROTAC-degradation by MTOR signaling in ovarian cancer cells is shown in FIG. 7J. PROTAC-mediated degradation of BRD4 induces RTK signaling resulting in increased MTOR signaling which prevents the degradation of BRD4 in cells resistant to BET PROTACs.

[16] = system: BET proteins (BRD2, BRD3, BRD4); experiment: Western blot of BET proteins, OVCAR8 ARV-R cells
[17] = system: DLD-1 cells; experiment: Spheroid assay, DLD-1 cells; conditions: 2 μM RAD001, 1 nM dBET6
Procedure: Data were analyzed as % cell viability of DMSO control, presented as means of 3 independent assays.

[18] = molecular target: T1, CDK9; experiment: Western blot of CDK9 protein levels, OVCAR8 cells; conditions: escalating doses
Procedure: as §1

[19] = system: DLD-1 cells; experiment: Cell-Titer Glo cell viability and drug synergy, DLD-1 cells
Procedure: Blockade of MTORC1 signaling sensitizes cancer cells resistant to BET-PROTACs. […] Data were analyzed as % cell viability of DMSO control, presented as means of 3 independent assays.

T1 sequence (P50750 whole entry): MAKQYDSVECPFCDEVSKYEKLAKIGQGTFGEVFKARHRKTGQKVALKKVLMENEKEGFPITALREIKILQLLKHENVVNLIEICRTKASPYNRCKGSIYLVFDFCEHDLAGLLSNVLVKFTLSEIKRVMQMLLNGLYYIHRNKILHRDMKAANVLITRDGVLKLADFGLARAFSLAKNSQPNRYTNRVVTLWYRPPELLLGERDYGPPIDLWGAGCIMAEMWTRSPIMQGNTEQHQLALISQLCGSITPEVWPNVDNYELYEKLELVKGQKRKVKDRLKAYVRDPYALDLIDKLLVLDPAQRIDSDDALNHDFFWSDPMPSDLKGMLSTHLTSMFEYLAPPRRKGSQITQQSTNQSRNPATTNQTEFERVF
T1 sequence (O60563 whole entry partner): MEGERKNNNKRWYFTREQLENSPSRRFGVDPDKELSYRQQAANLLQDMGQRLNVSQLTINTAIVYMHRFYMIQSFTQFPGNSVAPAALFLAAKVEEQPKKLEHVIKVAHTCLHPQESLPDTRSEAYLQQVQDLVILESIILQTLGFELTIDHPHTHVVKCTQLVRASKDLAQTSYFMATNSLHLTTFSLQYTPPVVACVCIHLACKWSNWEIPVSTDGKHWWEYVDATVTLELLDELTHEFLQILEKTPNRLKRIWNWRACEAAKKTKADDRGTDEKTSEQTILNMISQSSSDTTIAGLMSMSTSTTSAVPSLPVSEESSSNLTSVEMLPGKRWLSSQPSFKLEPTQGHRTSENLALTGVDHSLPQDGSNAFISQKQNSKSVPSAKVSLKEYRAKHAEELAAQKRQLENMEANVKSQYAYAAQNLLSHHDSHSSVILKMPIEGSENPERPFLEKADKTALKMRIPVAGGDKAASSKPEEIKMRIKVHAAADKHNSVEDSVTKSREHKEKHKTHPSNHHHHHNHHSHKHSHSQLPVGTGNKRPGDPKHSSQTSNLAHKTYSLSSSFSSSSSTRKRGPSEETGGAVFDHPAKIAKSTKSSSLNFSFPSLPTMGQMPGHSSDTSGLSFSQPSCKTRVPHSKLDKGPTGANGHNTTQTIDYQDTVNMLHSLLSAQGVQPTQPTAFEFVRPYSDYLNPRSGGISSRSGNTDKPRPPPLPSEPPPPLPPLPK

SMILES	apoptosis [2]	growth inhibition [3]	BET protein levels [4]	phosphorylation of P70S6K (T359) ([5]; 1 μM)	sensitivity of MZ1-R cells relative to JQ1-R cells or parental cells [6]	cell viability / growth of MZ1-R cells compared with parental cells [7]	CDK9 protein levels [9]	BRD2, BRD3 or BRD4 RNA levels [10]	sensitivity of Thal-R cells relative to parental cells [12]	cell viability of ARV-R cells compared with parental cells [13]	BET protein levels [14]	cell viability / growth inhibition [15]	spheroid growth in 3D assays [17]	other results
CCc1cc(Nc2nccc(-c3c(-c4ccc(OC)c(C(=O)Nc5c(F)cccc5F)c4)nc4ccccn34)n2)c(OC)cc1N1CCC(N2CCN(S(C)(=O)=O)CC2)CC1 [GSK1904529A]	induction of apoptosis	minimal growth inhibition	reduced BRD2 and BRD4 proteins	reduced MTOR-mediated phosphorylation of P70S6K (T359)	more sensitive	significantly blocked cell growth to a greater extent than parental cells	downregulation of CDK9	unaffected	more sensitive	reduced cell viability more than in parental cells	significantly reduced			colony formation [1]: inhibited colony formation to a greater extent than parental cells; kinase MIB-binding ([5]; OVCAR8 MZ1-R cells, 1 μM, 48 hours, MIB-MS): reduced MIB-binding of drug targets INSR and IGF1R; kinase activity by phospho-blot ([5]; OVCAR8 MZ1-R cells, escalating doses, 48 hours): Inhibition of INSR/IGF1R, MTOR, P70S6K, BRAF and ERK activity; BET protein levels [8]: did not reduce BET protein levels; BET protein levels [11]: did not reduce BET protein levels; MYC protein levels ([14]; escalating doses, 48 hours): dose dependent reduction in MYC protein levels
CO[C@H]1C[C@@H]2CC[C@@H](C)[C@@](O)(O2)C(=O)C(=O)N2CCCC[C@H]2C(=O)O[C@H]([C@H](C)C[C@@H]2CC[C@@H](OCCO)[C@H](OC)C2)CC(=O)[C@H](C)/C=C(\C)[C@@H](O)[C@@H](OC)C(=O)[C@H](C)C[C@H](C)/C=C/C=C/C=C/1C [RAD001]		minimal growth inhibition	reduced BRD2 and BRD4 proteins	reduced MTOR-mediated phosphorylation of P70S6K (T359)	more sensitive	significantly blocked cell growth to a greater extent than parental cells	downregulation of CDK9	unaffected	more sensitive	reduced cell viability more than in parental cells	reduced BRD2 and BRD4 levels	less effective	ineffective	phosphorylated RNA pol II (S2) ([5]; OVCAR8 MZ1-R cells, 48 hour RAD001 treatment, with or without bortezomib): inhibition of phosphorylated RNA pol II (S2); BET protein levels [16]: reduced BRD2 and BRD4 levels
CC(C)(C)c1cnc(CSc2cnc(NC(=O)C3CCN(CC(=O)NCCOCCOCCOCCNc4cccc5c4C(=O)N(C4CCC(=O)NC4=O)C5=O)CC3)s2)o1 (stereo not drawn) [Thal SNS 032]							failed to degrade CDK9							CDK9 protein levels [18]: reduction of CDK9 protein levels
Cc1sc2c(c1C)C(c1ccc(Cl)cc1)=N[C@@H](CC(=O)NCCCCCCCCNC(=O)COc1cccc3c1C(=O)N(C1CCC(=O)NC1=O)C3=O)c1nnc(C)n1-2 (stereo partly drawn) [dBET6]	promoted apoptosis									cross resistance		less effective	ineffective	cell viability of MZ1-R cells compared with parental cells ([6]; OVCAR8 MZ1-R): inhibited cell viability; GI50 [19]: > 1 µM
